Reference: patent US9839690B2, “Singlet oxygen-labile linkers and methods of production and use thereof” (The Board of Regents of the University of Oklahoma, priority 2012, dated 2017)
Each block holds one molecule with its values, some of them ahead of it.

Key:
[1] = 1H-NMR of drugs and model linker compound with CMP-OMe before and after irradiation; format: physicochemical; settings: 1H-NMR
Source text: The cleavage of aminoacrylate linkers after irradiation was supported by the increased coumarin fluorescence of 9 by irradiation (FIGS. 14-21). The unique peak of each compound was integrated against the peak of CMP-OMe (four protons of CMP-OMe at 9.7 ppm, FIG. 14), which was known to be inert to singlet oxygen oxidation. […] However, we observed 77% decrease of the proton peak of the aminoacrylate linker after the irradiation (FIG. 21). […] PD 9 had negligible coumarin emission compared to that of free coumarin at the equimolar concentration. In the presence of 10 μM of 9, MCF-7 cells were incubated for 24 h to activate dPS. Then, the samples were irradiated by visible light (540±10 nm, 8 mW/cm^2, 30 min). […] The released free coumarin was also detected and quantified by HPLC based on the standard curve of free coumarin. As such, almost 99% of 9 released coumarin while only 64% of dPS of 9 were activated when irradiated.

[2] = test system: MCF-7 cells; experiment: Dark toxicity, MTT cell viability (Example 4); format: cell-based; settings: MCF-7, 96 hr, no irradiation
Protocol: MCF-7 cells (5,000 cells/well) were seeded in 96 well plates. After the plates were incubated for 24 hr, the culture medium was aspirated and the cells were washed with cold PBS (100 μL) once. Then, prodrug in the 200 μL culture media was added to cells. The final concentrations ranging from 1 nM to 1 μM were used to perform concentration dependent cell viability and 25 nM prodrug was used to perform time dependent drug release study. After 96 hr incubation, the cell viability was determined by MTT assay detailed below. The experiments were performed in triplicate. IC50 values were calculated with GraphPad Prism 5.
Cell viability was assessed by MIT assay.^89 In brief, after thoroughly washing the cells 2× with PBS buffer, the cells were treated with 200 μL 0.5 mg/mL MIT (3-(4,5-dimethylthiazol-2-yl)-2,5-diphenyltetrazolium bromide, a yellow tetrazole). Subsequently, the cells were incubated at 37° C. under a humidified atmosphere of 5% CO2 for 4 h. After 4 h of incubation, the solution from each well was taken out, and washed with PBS one time and added 100 μL DMSO. The plates were shaken at room temperature for 10 min and read immediately at 570 nm on a microplate reader (Spectra max, Molecular devices). Cell viability (%) was expressed as a ratio of treated cells to control cells.

[3] = literature (ref 79); cited from earlier work
[4] = Oxidation of aminoacrylate linker model compound with ROS quenchers; format: physicochemical; settings: model compound 9 mM, CMP-OMe 9 mM, quencher 9 mM, 690 nm, 100 mW/cm^2
Protocol: To determine the effect of specific ROS quenchers on the oxidation of the aminoacrylate linker, the rate of oxidation of aminoacrylate linker was determined by ^1H-NMR using the vinyl proton of the aminoacrylate linker (FIG. 20). A solution of (E)-N-phenyl-3-(piperidin-1-yl)acrylamide (9 mM), a photosensitizer (CMP-OMe, 9 mM), a ROS quencher (0 or 9 mM) was in a CDCl3 solvent in a NMR tube was exposed to the irradiation (690 nm diode laser, 100 mW/cm^2) and ^1H-NMR was taken every 5 min. The ROS quencher was either a singlet oxygen quencher (DABCO or β-Carotene) or a superoxide quencher (1,4-Benzoquinone) and the photosensitizer was CMP-OMe (5-(4-methoxyphenyl)-10,15,20-triphenyl-21,23-dithiaporphyrin).

[5] = Relative rates of photooxidation of the linker in CMP-L-CA4 with ROS quenchers; format: physicochemical; settings: 1.2 μmol each in CDCl3, 690 nm, 10 mW/cm^2
Protocol: The reaction mixture was irradiated by using diode laser (690 nm, 10 mW/cm^2). The oxidation of the olefin with SO was monitored every 5 min by the decrease of the olefinic peaks of the aminoacrylate in ^1H-NMR

[6] = literature (ref 88); cited from earlier work
[7] = molecular target: T1, tubulin (Sus scrofa, UniProt P02554); experiment: Fluorescence-based tubulin polymerization assay; format: biochemical; settings: 3 μM
T1 construct: purchased Cytoskeleton, Inc. BK011P
Protocol: Paclitaxel and CA4 were used as positive control drugs (a polymerization enhancer and an inhibitor, respectively) in addition to the negative control group (FIG. 32).
The fluorescence-based tubulin polymerization was determined by using a kit supplied by Cytoskeleton, Inc. (cat #=BK011P). Its basic principle is that the fluorescence reporter increases as it is incorporated into microtubules during the course of polymerization. The assay was performed following the experimental procedure as described in version 2.1 of the tubulin polymerization assay kit manual. Briefly, the test drug (final concentration=3 μM) was added to a mixture of tubulin and GTP in a buffer solution, and the reaction mixture was incubated at 37° C. Fluorescence was monitored (excitation=360 nm and emission=450 nm) by using a fluorescence plate reader (SpectraMax Gemini EM, Molecular device). Paclitaxel and CA4 were included in the assay as positive controls in addition to the negative control (vehicle only).

[8] = Photophysical properties of selected compounds in DMSO; format: physicochemical
[9] = Photooxygenation of model compounds 2-16 with dithiaporphyrin photosensitizer, 690 nm diode laser (Example 3); format: physicochemical
Protocol: To evaluate the rate of oxidation by singlet oxygen, the model compounds 2-7 were irradiated by a diode laser (690 nm, 200 mW/cm2, 25 min) in the presence of the photosensitizer 5-(4-methoxyphenyl)-10,15,20-[…]-21,23-dithiaporphyrin (FIG. 11 and Table 5). The reaction of olefins with singlet oxygen was monitored by the decrease of olefinic proton peaks in the ^1H-NMR spectra. (Z)-1,2-Bis(phenylthio)ethylene was used as positive control. […] Oxidation of only the nitrogen analogues is probably due to electron donation from the nitrogen to the carbonyl group making the olefinic bond electron rich for attack by singlet oxygen.
In a NMR tube, an olefin (0.0048 mmol) was dissolved in CDCl3 (0.5 mL). The photosensitizer compound (32), 3 mg, 0.0048 mmol] was added to this solution. […] The reaction of olefins with singlet oxygen was monitored by the decrease of olefinic peaks in ^1H-NMR spectra. In the case of compound 14, 15 and 16 no photosensitizer was added.

[10] = test system: MCF-7 cells; experiment: Dark toxicity, MTT (Example 5); format: cell-based
Protocol: It seemed that the bulky groups, CMP-L and CMP-NCL, reduced the cytotoxic activity of CA4, presumably through the interference of its binding to tubulin as estimated by the modeling study.
(§1) MCF-7 cells were maintained in minimum essential medium (α-MEM) supplemented with 10% bovine growth serum, 2 mM L-glutamine, 50 units/mL penicillin G, 50 μg/mL streptomycin and 1.0 μg/mL fungizone. MCF-7 cells (5,000 cells/well) were seeded on 96-well plates in the medium and then incubated for 24 h at 37° C. in 5% CO2. Stock solutions (2 mM) were prepared in DMSO. The stocks were further diluted with medium to get necessary final concentrations. The diluted solution (10 μL) was then added to each well (190 μL). The plates were incubated for 24 h and then removed from the incubator. For the phototoxicity study: The plate without a cover was placed on an orbital shaker (Lab-line, Barnstead International) and irradiated by using a diode laser (690 nm, 5.6 mW/cm^2) for 30 min. To ensure uniformity of the light during the irradiation, each plate was shaken gently on an orbital shaker. For the dark toxicity study: Plates were kept in the dark for 30 min, and then returned to the incubator. Cell viability was determined after 3 days by using the MTT assay. Briefly, a 10 μL solution of MTT (10 mg in 1 mL PBS buffer) was added to each well and the plate was incubated for 4 h. Then, the MTT solution was removed and the cells were dissolved in 200 μL of DMSO and the absorbance within each well was measured at 570 nm with background subtraction at 650 nm. The cell viability was then quantified by measuring the absorbance of the treated wells compared to that of the untreated wells (controls) and expressed as a percentage.

[11] = test system: MCF-7 cells; experiment: Phototoxicity, MTT (Example 5); format: cell-based
Protocol: On the other hand, only a photodynamic effect could damage cells by [CMP-NCL-CA4+hv].
as §1, with “For the dark toxicity study: Plates were kept in the dark for 30 min, and then returned to the incubator.” left out, “Briefly, a 10 μL solution of MTT (10 mg in 1 mL PBS buffer) was added to each well and the plate was incubated for 4 h.” left out

[12] = Photooxidation of 1,2-diheteroatom-substituted olefins with CMP-OMe, 690 nm diode laser (Example 2); format: physicochemical
Protocol: In a NMR tube, an olefin (0.0048 mmol) was dissolved in CDCl3 (0.5 mL). The photosensitizer [5-(4-methoxyphenyl)-10,15,20-triphenyl-21-23-dithiaporphyrin, CMP-OMe, 3 mg, 0.0048 mmol] was added to this solution. Then, the reaction mixture was irradiated for 15 min using a diode laser (690 nm, 200 mW/cm^2). The reaction of olefins with singlet oxygen was monitored by the decrease of olefinic peaks in ^1H-NMR spectra. The formation of the photooxidation products were also determined by appearance of the formate (or thioformate) peaks in ^1H-NMR spectra.
To examine the oxidation rate of these electron-rich alkenes with singlet oxygen (Scheme 4), compounds 6, 8, and 10 were irradiated in the presence of 5-(4-methoxyphenyl)-10,15,20-triphenyl-21,23-dithiaporphyrin as a photosensitizer.^53 All experiments were performed following the standard procedure previously set with a slight modification by using a 690 nm diode laser source (200 mW/cm^2).^35 In the experiments, the amount of sensitizer used was not catalytic. Here, the ratio of olefin and photosensitizer used was 1:1 to mimic the situation of prodrug where the olefinic linker could be used for connecting one drug molecule to one photosensitizer molecule.^7,35 The reaction solutions were irradiated for 15 min and monitored every 5 min using olefinic peaks in ^1H-NMR each time to monitor the progress of the reactions. Upon the oxidation by singlet oxygen, the olefinic peaks decreased.

[13] = 0 min, 690 nm diode laser, 200 mW/cm^2, CDCl3, no added photosensitizer for 14, 15, 16

T1 sequence (P02554 whole entry): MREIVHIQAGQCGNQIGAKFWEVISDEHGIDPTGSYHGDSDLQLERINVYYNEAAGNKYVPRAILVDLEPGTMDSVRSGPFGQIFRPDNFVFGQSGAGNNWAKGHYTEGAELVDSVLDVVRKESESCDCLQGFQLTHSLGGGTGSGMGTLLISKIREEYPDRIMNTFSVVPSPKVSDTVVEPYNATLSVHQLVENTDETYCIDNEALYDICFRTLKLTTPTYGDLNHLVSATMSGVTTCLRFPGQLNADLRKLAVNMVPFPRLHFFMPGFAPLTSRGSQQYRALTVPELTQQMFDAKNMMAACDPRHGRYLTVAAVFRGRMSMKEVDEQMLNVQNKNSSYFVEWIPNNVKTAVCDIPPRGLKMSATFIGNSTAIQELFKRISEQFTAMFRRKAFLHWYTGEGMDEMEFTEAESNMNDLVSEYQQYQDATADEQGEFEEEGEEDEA
T1 sequence (P02550 whole entry partner): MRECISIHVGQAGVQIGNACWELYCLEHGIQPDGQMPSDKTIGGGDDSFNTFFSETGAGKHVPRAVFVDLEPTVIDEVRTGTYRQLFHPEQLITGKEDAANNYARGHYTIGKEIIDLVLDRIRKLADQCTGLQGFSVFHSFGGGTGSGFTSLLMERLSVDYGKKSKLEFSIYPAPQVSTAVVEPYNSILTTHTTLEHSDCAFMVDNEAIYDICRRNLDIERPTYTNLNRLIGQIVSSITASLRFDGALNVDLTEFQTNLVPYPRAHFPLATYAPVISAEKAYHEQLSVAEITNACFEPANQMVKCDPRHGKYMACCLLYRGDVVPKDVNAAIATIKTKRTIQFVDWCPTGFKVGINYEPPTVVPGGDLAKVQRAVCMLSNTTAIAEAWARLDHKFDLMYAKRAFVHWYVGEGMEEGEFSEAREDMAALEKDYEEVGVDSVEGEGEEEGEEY

Molecule: C1CN2CCN1CC2 [DABCO, 1,4-diazabicyclo[2.2.2]octane]
Effect of ROS quencher on oxidation of the aminoacrylate linker [4]: effectively delayed the oxidation of the aminoacrylate linker | Effect of ROS quencher on oxidation of aminoacrylate linker of CMP-L-CA4 [5]: dramatically delayed the oxidation of aminoacrylate | Singlet oxygen quenching rate constant k [6]: 2.6e+08 M⁻¹ s⁻¹

Molecule: 5-(6) carboxy-fluorescein
Extinction Coefficient [8]: 80000 M⁻¹ cm⁻¹ | FQY (φ), fluorescence quantum yield [8]: 0.90 | emax (emission maximum) [8]: 525 nm | λmax (absorption maximum) [8]: 462 nm

Molecule: O=C1C=CC(=O)C=C1 [1,4-benzoquinone]
Effect of ROS quencher on oxidation of the aminoacrylate linker [4]: did not make any delay of the oxidation of the linker | Effect of ROS quencher on oxidation of aminoacrylate linker of CMP-L-CA4 [5]: did not have any effect on the oxidation of the aminoacrylate linker

Molecule: (E)-((13S)-13-Methyl-17-oxo-7,8,9,11,12,13,14,15,16,17-decahydro-6H cyclopenta[a] phenanthren-3-yl)3-(4-((2-phenoxy-10,15,20-triphenyl-21,23-dithiaporphyrinacetoxy)methyl) piperidin-1-yl)acrylate [Compound 16 (Example 3)]
Percentile of remaining compound [9, 13]: 100 | Percentile of remaining compound ([9]; 5 min): 60 | Percentile of remaining compound ([9]; 10 min): 10 | Release of parent molecule after irradiation ([9]; GC-MS / SI): successfully released Estrone | Photo-oxidation ([9]; in 10 min): 90%

Molecule: CC1=C(/C=C/C(C)=C/C=C/C(C)=C/C=C/C=C(C)/C=C/C=C(C)/C=C/C2=C(C)CCCC2(C)C)C(C)(C)CCC1 [β-carotene]
Effect of ROS quencher on oxidation of the aminoacrylate linker [4]: effectively delayed the oxidation of the aminoacrylate linker | Effect of ROS quencher on oxidation of aminoacrylate linker of CMP-L-CA4 [5]: dramatically delayed the oxidation of aminoacrylate | Singlet oxygen quenching rate constant k [6]: 1.2e+10 M⁻¹ s⁻¹

The next lines start with results.

Oxidation under the irradiation condition [1]: not oxidized at all
Molecule: CCc1c2c(nc3ccc(O)cc13)-c1cc3c(c(=O)n1C2)COC(=O)[C@]3(O)CC [SN-38]
IC50 [2]: 170 nM | Times more active than irinotecan [3]: at least 1000 times

Pattern of kinetic trace of tubulin polymerization [7]: enhancer
Molecule: CC(=O)O[C@H]1C(=O)[C@@]2(C)[C@H]([C@H](OC(=O)c3ccccc3)[C@]3(O)C[C@H](OC(=O)[C@H](O)[C@@H](NC(=O)c4ccccc4)c4ccccc4)C(C)=C1C3(C)C)[C@]1(OC(C)=O)CO[C@@H]1C[C@@H]2O [paclitaxel]

Inhibition of tubulin polymerization ([7]; 1 h incubation at 37° C.): 9%
Molecule: COc1ccc(/C=C\c2cc(OC)c(OC)c(OC)c2)cc1OCCCN1CCN(C(=O)COc2ccc(-c3c4nc(c(-c5ccccc5)c5ccc(s5)c(-c5ccccc5)c5nc(c(-c6ccccc6)c6ccc3s6)C=C5)C=C4)cc2)CC1 [CMP-NCL-CA4]
IC50 ([10]; MCF-7, dark, 3 days, read-out: IC50D (dark toxicity)): 1800 nM | Reduction of cytotoxicity relative to CA4 ([10]; dark): 200 fold | Increase of cytotoxicity after irradiation ([11]; IC50 dark vs irradiated): 1.7 fold | IC50 ([11]; MCF-7, 690 nm, 5.6 mW/cm^2, 30 min, read-out: IC50 after irradiation (phototoxicity)): 1060 nM

Extinction Coefficient [8]: 15800 M⁻¹ cm⁻¹ | FQY (φ), fluorescence quantum yield [8]: 0.14 | emax (emission maximum) [8]: 378 nm | λmax (absorption maximum) [8]: 325 nm | Oxidation under the irradiation condition [1]: not oxidized at all
Molecule: Cc1cc(=O)oc2cc(O)ccc12 [7-hydroxy-4-methyl-coumarin]

Remaining olefins (%) ([12]; 0 min, CMP-OMe, 690 nm, 200 mW/cm^2, CDCl3): 100% | Remaining olefins (%) ([12]; 5 min): 38% | Remaining olefins (%) ([12]; 10 min): 11% | Remaining olefins (%) ([12]; 15 min): 0%
Molecule: C(=C/Sc1ccccc1)/Sc1ccccc1 [control, (Z)-1,2-Bis(phenylthio) ethene]
Percentile of remaining compound [9, 13]: 100 | Percentile of remaining compound ([9]; 5 min): 70 | Percentile of remaining compound ([9]; 10 min): 59 | Percentile of remaining compound ([9]; 15 min): 41 | Percentile of remaining compound ([9]; 20 min): 23 | Percentile of remaining compound ([9]; 25 min): 13 | Decrease of olefinic proton peaks (photo-oxidation) ([9]; 25 min of irradiation): 87%
